In article PMC7587597, “Synthesis and Biological Evaluation of 1,3-Dideazapurine-Like 7-Amino-5-Hydroxymethyl-Benzimidazole Ribonucleoside Analogues as Aminoacyl-tRNA Synthetase Inhibitors” (Molecules, 2020):

How the values were obtained:
TyrRS = target: T1, TyrRS (Escherichia coli, UniProt P0AGJ9); test: ([…] Å); radiolabel aminoacylation inhibition (Kiapp); format: biochemical
T1 construct: gene tyrS

SerRS [1] = target: T2, SerRS (Escherichia coli, UniProt P0A8L1); test: radiolabel aminoacyl transfer assay, % inhibition at […]; format: biochemical
T2 construct: gene serS

SerRS [2] = target: T3, SerRS (Klebsiella pneumoniae, UniProt W9BNU9); test: X-ray crystal structure ([…] Å), soaked crystals; format: binding
T3 construct: gene serS

LeuRS [3] = target: T4, LeuRS (Neisseria gonorrhoeae, UniProt B4RNT1); test: X-ray crystal structure ([…] Å), soaked crystals; format: binding
T4 construct: gene leuS

LeuRS [4] = target: T5, LeuRS (Escherichia coli, UniProt P07813); test: radiolabel aminoacyl transfer assay with purified enzyme (Kiapp); format: biochemical
T5 construct: gene leuS

AspRS = target: T6, AspRS (Thermus thermophilus, UniProt Q5SKD2); test: X-ray crystal structure ([…] Å), soaked crystals; format: binding
T6 construct: gene aspS1

IleRS = target: T7, IleRS (Escherichia coli, UniProt P00956); test: radiolabel aminoacyl transfer assay with purified enzyme (Kiapp); format: biochemical
T7 construct: gene ileS
T7 sequence (P00956 2-938): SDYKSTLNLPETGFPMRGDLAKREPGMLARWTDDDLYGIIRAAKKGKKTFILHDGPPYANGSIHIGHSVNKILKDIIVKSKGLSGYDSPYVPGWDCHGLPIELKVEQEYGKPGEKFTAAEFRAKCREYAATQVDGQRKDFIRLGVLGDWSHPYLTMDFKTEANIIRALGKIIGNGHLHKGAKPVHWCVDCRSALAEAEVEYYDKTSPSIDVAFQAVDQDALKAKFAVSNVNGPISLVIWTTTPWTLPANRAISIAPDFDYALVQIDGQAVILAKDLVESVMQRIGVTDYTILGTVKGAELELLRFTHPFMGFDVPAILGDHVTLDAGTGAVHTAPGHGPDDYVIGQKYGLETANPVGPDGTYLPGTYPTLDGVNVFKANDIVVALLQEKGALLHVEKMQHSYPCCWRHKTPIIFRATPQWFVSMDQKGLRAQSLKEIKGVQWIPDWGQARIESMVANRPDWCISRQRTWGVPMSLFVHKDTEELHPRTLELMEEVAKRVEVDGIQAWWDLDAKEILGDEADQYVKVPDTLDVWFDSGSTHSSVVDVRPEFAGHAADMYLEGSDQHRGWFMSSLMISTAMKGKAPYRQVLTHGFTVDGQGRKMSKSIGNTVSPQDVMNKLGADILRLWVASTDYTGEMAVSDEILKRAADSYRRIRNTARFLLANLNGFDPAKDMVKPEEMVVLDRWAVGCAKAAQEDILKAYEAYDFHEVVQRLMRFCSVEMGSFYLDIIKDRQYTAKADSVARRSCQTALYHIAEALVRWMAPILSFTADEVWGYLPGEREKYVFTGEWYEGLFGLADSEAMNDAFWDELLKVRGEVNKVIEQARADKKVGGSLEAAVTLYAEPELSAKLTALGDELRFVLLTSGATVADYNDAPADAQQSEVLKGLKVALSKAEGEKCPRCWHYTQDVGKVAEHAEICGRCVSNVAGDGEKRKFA

T1 sequence (P0AGJ9 2-424): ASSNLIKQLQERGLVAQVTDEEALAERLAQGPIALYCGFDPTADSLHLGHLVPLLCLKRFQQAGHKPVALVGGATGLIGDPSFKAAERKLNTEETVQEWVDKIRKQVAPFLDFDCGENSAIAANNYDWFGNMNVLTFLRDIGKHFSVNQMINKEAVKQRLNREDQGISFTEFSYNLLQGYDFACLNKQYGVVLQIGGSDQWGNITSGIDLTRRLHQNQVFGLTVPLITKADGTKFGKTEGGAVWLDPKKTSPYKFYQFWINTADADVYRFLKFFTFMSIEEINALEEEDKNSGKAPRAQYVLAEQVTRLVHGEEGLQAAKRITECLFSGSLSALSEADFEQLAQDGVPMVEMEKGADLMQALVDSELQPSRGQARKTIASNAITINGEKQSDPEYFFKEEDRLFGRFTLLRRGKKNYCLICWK
T6 sequence (Q5SKD2 whole entry): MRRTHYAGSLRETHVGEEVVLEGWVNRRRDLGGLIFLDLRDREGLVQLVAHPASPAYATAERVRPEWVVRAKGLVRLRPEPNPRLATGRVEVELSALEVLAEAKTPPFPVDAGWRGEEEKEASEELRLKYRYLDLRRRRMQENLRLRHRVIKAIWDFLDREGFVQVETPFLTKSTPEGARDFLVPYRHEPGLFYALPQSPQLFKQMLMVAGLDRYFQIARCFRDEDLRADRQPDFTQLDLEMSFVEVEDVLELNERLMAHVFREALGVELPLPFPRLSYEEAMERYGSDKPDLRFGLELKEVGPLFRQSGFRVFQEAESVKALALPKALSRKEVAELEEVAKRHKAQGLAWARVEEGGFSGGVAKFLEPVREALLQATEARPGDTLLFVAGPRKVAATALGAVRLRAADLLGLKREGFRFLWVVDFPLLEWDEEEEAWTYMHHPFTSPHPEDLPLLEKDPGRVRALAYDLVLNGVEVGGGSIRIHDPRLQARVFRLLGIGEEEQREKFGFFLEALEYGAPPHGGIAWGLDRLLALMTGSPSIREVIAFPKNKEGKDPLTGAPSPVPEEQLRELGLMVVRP
T2 sequence (P0A8L1 whole entry): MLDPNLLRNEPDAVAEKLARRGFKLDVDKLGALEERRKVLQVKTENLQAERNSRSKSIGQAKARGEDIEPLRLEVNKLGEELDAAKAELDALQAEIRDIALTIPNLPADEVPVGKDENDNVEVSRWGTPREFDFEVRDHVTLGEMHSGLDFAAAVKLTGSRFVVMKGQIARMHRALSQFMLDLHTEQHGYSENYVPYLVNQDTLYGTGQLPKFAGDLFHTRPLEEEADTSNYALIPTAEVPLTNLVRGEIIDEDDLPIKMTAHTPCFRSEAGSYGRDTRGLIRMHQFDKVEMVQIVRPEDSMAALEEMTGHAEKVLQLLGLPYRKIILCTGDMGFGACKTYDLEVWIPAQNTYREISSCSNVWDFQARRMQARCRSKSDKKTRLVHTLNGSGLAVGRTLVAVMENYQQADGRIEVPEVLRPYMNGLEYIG
T4 sequence (B4RNT1 whole entry): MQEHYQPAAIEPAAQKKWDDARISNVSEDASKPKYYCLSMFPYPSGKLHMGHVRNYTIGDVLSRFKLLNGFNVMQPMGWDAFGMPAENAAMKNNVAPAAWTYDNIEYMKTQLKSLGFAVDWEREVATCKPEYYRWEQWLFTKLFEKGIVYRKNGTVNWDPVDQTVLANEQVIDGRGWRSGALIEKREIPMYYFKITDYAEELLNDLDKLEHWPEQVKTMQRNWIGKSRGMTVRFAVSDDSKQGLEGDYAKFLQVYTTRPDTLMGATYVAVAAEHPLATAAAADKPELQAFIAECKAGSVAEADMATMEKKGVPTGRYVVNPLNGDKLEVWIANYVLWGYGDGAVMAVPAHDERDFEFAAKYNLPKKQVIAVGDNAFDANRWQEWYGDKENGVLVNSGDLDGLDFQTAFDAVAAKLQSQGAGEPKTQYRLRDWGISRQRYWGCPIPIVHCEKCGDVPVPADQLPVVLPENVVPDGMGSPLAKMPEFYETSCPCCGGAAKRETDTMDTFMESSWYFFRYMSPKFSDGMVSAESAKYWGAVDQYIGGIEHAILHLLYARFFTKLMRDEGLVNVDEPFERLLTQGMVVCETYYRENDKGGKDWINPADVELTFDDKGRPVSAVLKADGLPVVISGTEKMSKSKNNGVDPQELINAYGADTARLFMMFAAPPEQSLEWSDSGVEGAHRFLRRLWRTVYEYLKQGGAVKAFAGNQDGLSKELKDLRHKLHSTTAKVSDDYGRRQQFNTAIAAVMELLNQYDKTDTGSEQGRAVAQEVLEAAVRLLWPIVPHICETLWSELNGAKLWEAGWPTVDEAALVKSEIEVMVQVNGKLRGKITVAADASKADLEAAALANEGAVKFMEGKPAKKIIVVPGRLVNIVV
T5 sequence (P07813 whole entry): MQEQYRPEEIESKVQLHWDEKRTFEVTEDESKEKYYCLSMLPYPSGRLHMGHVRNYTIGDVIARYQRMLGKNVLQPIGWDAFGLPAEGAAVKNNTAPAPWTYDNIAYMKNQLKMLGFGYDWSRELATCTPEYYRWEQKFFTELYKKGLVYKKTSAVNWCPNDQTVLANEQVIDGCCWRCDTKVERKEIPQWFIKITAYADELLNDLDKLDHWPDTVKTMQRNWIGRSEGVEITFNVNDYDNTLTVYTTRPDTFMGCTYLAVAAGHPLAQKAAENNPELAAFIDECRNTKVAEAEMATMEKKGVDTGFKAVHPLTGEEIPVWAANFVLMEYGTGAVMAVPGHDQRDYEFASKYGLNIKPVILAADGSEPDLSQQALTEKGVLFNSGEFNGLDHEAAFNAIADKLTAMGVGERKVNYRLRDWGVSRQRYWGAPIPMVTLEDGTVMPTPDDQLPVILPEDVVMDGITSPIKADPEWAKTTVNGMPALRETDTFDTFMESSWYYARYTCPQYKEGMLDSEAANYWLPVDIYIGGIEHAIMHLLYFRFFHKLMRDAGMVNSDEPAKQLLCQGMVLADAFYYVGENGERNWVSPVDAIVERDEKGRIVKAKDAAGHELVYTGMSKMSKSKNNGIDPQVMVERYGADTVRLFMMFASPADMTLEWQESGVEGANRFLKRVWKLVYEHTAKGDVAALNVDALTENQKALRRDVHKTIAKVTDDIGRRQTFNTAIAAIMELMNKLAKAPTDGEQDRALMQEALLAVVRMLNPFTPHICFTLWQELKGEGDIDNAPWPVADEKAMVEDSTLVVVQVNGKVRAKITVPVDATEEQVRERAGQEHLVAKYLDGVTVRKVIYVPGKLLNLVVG
T3 sequence (W9BNU9 1-430): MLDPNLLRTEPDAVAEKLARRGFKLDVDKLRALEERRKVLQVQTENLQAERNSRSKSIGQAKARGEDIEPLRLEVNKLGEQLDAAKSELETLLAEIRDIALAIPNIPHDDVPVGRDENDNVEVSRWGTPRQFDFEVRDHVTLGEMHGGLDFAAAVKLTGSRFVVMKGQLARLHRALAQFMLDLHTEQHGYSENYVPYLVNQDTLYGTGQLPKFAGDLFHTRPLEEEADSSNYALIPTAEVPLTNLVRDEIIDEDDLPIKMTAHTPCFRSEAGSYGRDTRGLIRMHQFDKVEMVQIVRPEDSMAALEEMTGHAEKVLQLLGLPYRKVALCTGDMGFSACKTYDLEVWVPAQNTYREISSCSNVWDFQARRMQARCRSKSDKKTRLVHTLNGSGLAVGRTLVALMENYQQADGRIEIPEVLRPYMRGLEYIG

Compound `Nc1cc(CO)cc2ncn([C@@H]3O[C@H](COS(=O)(=O)NC(=O)[C@@H](N)Cc4ccc(O)cc4)[C@@H](O)C3O)c12` (stereo in doubt) [32b, (2R,3S,4S,5R)-(5-(7-Amino-5-(Hydroxymethyl)-1H-Benzo[d]imidazol-1-yl)-3,4-Dihydroxytetrahydrofuran-2-yl)methyl Tyrosylsulfamate] has a Ki (TyrRS) of 1230 ± 239 nM.

In the case of `Nc1cc(CO)cc2ncn([C@@H]3O[C@H](COS(=O)(=O)NC(=O)[C@@H](N)CO)[C@@H](O)C3O)c12` (stereo in doubt) [32c, (2R,3S,4S,5R)-(5-(7-Amino-5-(Hydroxymethyl)-1H-Benzo[d]imidazol-1-yl)-3,4-Dihydroxytetrahydrofuran-2-yl)methyl Serylsulfamate], the inhibition at 200 µM (SerRS [1]) is reported as 54% and the “X-ray crystal structure (2.18 Å), soaked crystals” value (SerRS [2]) is reported as “K. pneumoniae SerRS in complex with SerS7HMDDA”.

In the case of `CC(C)C[C@H](N)C(=O)NS(=O)(=O)OC[C@H]1O[C@@H](n2cnc3cc(CO)cc(N)c32)C(O)[C@@H]1O` (stereo in doubt) [32e, (2R,3S,4S,5R)-(5-(7-Amino-5-(Hydroxymethyl)-1H-Benzo[d]imidazol-1-yl)-3,4-Dihydroxytetrahydrofuran-2-yl)methyl Leucylsulfamate], the “X-ray crystal structure (2.25 Å), soaked crystals” value (LeuRS [3]) is reported as “N. gonorrhoeae LeuRS in complex with LeuS7HMDDA” and the Ki (LeuRS [4]) is reported as 21.5 ± 1.2 nM.

With `Nc1cc(CO)cc2ncn([C@@H]3O[C@H](COS(=O)(=O)NC(=O)[C@@H](N)CC(=O)O)[C@@H](O)[C@H]3O)c12` [32d, 3-Amino-4-((((5-(7-Amino-5-(Hydroxymethyl)-1H-Benzo[d]imidazol-1-yl)-3,4-Dihydroxytetrahydrofuran-2-yl)methoxy)sulfonyl)amino)-4-Oxobutanoic Acid] the “X-ray crystal structure (2.15 Å), soaked crystals” value (AspRS) was “T. thermophilus AspRS in complex with AspS7HMDDA”.

`CC[C@H](C)[C@H](N)C(=O)NS(=O)(=O)OC[C@H]1O[C@@H](n2cnc3cc(CO)cc(N)c32)[C@@H](O)[C@@H]1O` [32f, (2R,3S,4S,5R)-(5-(7-Amino-5-(Hydroxymethyl)-1H-Benzo[d]imidazol-1-yl)-3,4-Dihydroxytetrahydrofuran-2-yl)methyl Isoleucylsulfamate] showed a Ki (IleRS) of 10.8 ± 0.8 nM.
